Legend:
clinical [1] = settings: human, in vivo, iv, Vdss
clinical [2] = settings: human, in vivo, iv, CL
clinical [3] = settings: human, in vivo, iv
clinical [4] = settings: human, in vivo, iv, t1/2

| Structure (SMILES) | Vd (clinical [1]) [L/kg] | clearance (clinical [2]) [mL/min/kg] | MRT (clinical [3]) [h] | half-life (clinical [4]) [h] |
| --- | --- | --- | --- | --- |
| CCCN(CCC)S(=O)(=O)c1ccc(C(=O)O)cc1 [PROBENECID] | 0.13 | 0.25 | 8.7 | 5.9 |
| CN1CCN(CCCN2c3ccccc3Sc3ccc(Cl)cc32)CC1 [PROCHLORPERAZINE] | 22 | 16 | 23 | 9 |
| OC(CCN1CCCC1)(c1ccccc1)C1CCCCC1 (stereo unspecified) [PROCYCLIDINE] | 0.74 | 0.86 | 14 | 12 |
| CC(C)NCC(O)COc1cccc2ccccc12 (stereo unspecified) [PROPRANOLOL] | 3.1 | 12 | 4.3 | 3.4 |
| Cc1cc(O)c2c(=O)c3c(O)cc(O)c4c5c(O)cc(O)c6c(=O)c7c(O)cc(CO)c8c1c2c(c34)c(c65)c78 [PSEUDOHYPERICIN] | 0.56 | 0.62 | 15 | 20 |
| CN(C)C(=O)Oc1ccc[n+](C)c1 [PYRIDOSTIGMINE] | 1.1 | 9.6 | 1.8 | 1.5 |
| CCN(CC)CCCC(C)Nc1c2ccc(Cl)cc2nc2ccc(OC)cc12 (stereo unspecified) [QUINACRINE] | 45 | 5.1 | 150 | 120 |
| COCCCOc1ccnc(C[S+]([O-])c2nc3ccccc3[nH]2)c1C (stereo unspecified) [RABEPRAZOLE] | 0.22 | 4 | 0.92 | 1 |
| CCOc1ccccc1OC(c1ccccc1)C1CNCCO1 (stereo unspecified) [REBOXETINE] | 0.65 | 0.82 | 13 | 10 |
| CCOc1cc(CC(=O)N[C@@H](CC(C)C)c2ccccc2N2CCCCC2)ccc1C(=O)O [REPAGLINIDE] | 0.35 | 7.8 | 0.75 | 0.87 |
| O=C1c2ccccc2S(=O)(=O)N1CCCCNC[C@H]1CCc2ccccc2O1 [REPINOTAN] | 0.21 | 2.2 | 1.6 | 1.2 |
| NC[C@H]1O[C@H](O[C@H]2[C@H](O[C@@H]3O[C@H](CO)[C@@H](O)[C@H]3O)[C@@H](O)[C@H](N)C[C@@H]2N)[C@H](N)[C@@H](O)[C@@H]1O [RIBOSTAMYCIN] | 0.25 | 1.5 | 2.8 | 2.5 |
| CO[C@H]1/C=C/O[C@@]2(C)Oc3c(C)c(O)c4c(c3C2=O)C2=NC3(CCN(CC(C)C)CC3)NC2=C(NC(=O)/C(C)=C\C=C\[C@H](C)[C@H](O)[C@@H](C)[C@@H](O)[C@@H](C)[C@H](OC(C)=O)[C@@H]1C)C4=O [RIFABUTIN] | 9.3 | 2.4 | 65 | 37 |
| CN(C)CCc1c[nH]c2ccc(Cn3cncn3)cc12 [RIZATRIPTAN] | 1.9 | 16 | 1.98 | 2.2 |
| CN(C(=O)c1c(O)c2ccccc2n(C)c1=O)c1ccccc1 [ROQUINIMEX] | 0.21 | 0.082 | 43 | 31 |
| CC(C)c1nc(N(C)S(C)(=O)=O)nc(-c2ccc(F)cc2)c1/C=C/[C@@H](O)C[C@@H](O)CC(=O)O [ROSUVASTATIN] | 1.7 | 11 | 2.6 | 2 |
| CN(CC(N)=O)C(=O)N(CCCl)N=O [SARCNU] | 0.76 | 9 | 1.4 | 1 |
| C#CCN(C)[C@H](C)Cc1ccccc1 [SELEGILINE] | 1.9 | 20 | 1.6 | 1.3 |
| CCN(CC)CCNC(=O)c1ccc(NS(C)(=O)=O)cc1 [SEMATILIDE] | 0.82 | 3.7 | 3.7 | 3.8 |
| N[C@@H]1CN(c2c(F)cc3c(=O)c(C(=O)O)cn([C@@H]4C[C@@H]4F)c3c2Cl)CC12CC2 [SITAFLOXACIN ANHYDROUS] | 1.5 | 3.7 | 6.7 | 6.6 |

| Structure (SMILES) | Vd (clinical [1]) [L/kg] | clearance (clinical [2]) [mL/min/kg] | MRT (clinical [3]) [h] | half-life (clinical [4]) [h] |
| --- | --- | --- | --- | --- |
| N[C@@H](CC(=O)N1CCn2c(nnc2C(F)(F)F)C1)Cc1cc(F)c(F)cc1F [SITAGLIPTIN] | 2.8 | 6 | 7.78 | 12 |
| C[C@@H]1CN(c2c(F)c(N)c3c(=O)c(C(=O)O)cn(C4CC4)c3c2F)C[C@H](C)N1 [SPARFLOXACIN] | 3.9 | 2.7 | 24 | 20 |
| CN[C@@H]1[C@H](O)[C@H](NC)[C@H]2O[C@@]3(O)C(=O)C[C@@H](C)O[C@H]3O[C@@H]2[C@H]1O [SPECTINOMYCIN] | 0.13 | 0.99 | 2.2 | 1.8 |
| CC(C)[C@@H](CC[C@@H](C)[C@H]1CC[C@H]2[C@@H]3[C@H](O)C[C@H]4C[C@@H](NCCCNCCCCN)CC[C@]4(C)[C@H]3CC[C@]12C)OS(=O)(=O)O [SQUALAMINE] | 0.23 | 1.2 | 3.2 | 9.5 |
| Nc1ccc(S(=O)(=O)Nc2ncccn2)cc1 [SULFADIAZINE] | 0.29 | 0.55 | 8.8 | 7 |
| CC(C(=O)O)c1ccc(C(=O)c2cccs2)cc1 (stereo unspecified) [SUPROFEN] | 0.04 | 0.76 | 0.88 | 2.1 |
| C=CC[C@@H]1/C=C(\C)C[C@H](C)C[C@H](OC)[C@H]2O[C@@](O)(C(=O)C(=O)N3CCCC[C@H]3C(=O)O[C@H](/C(C)=C/[C@@H]3CC[C@@H](O)[C@H](OC)C3)[C@H](C)[C@@H](O)CC1=O)[C@H](C)C[C@@H]2OC [TACROLIMUS ANHYDROUS] | 1.2 | 0.7 | 27 | 26 |
| CC(C)(C)NCC(O)COc1ccc(NC(=O)NC2CCCCC2)cc1 (stereo unspecified) [TALINOLOL] | 3.3 | 4.9 | 11 | 11 |
| CCOc1ccccc1OCCN[C@H](C)Cc1ccc(OC)c(S(N)(=O)=O)c1 [TAMSULOSIN] | 0.21 | 0.62 | 5.6 | 6.8 |
| CCCCCNC(=N)N/N=C/c1c[nH]c2ccc(OC)cc12 [TEGASEROD] | 5.3 | 18 | 4.9 | 11 |
| CO[C@H]1C[C@@H]2CC[C@@H](C)[C@@](O)(O2)C(=O)C(=O)N2CCCC[C@H]2C(=O)O[C@H]([C@H](C)C[C@@H]2CC[C@@H](OC(=O)C(C)(CO)CO)[C@H](OC)C2)CC(=O)[C@H](C)/C=C(\C)[C@@H](O)[C@@H](OC)C(=O)[C@H](C)C[C@H](C)/C=C/C=C/C=C/1C [TEMSIROLIMUS] | 3 | 7.7 | 10 | 18 |
| CC(C)(C)NCC(O)c1cc(O)cc(O)c1 (stereo unspecified) [TERBUTALINE] | 1.5 | 3.4 | 7.4 | 15 |
| CC(CC(c1ccccc1)c1ccccc1)NC(C)(C)C (stereo unspecified) [TERODILINE] | 5.1 | 1.1 | 81 | 56 |
| CCO[C@@H](Cc1ccc(OCCc2ccc(OS(C)(=O)=O)cc2)cc1)C(=O)O [TESAGLITAZAR] | 0.13 | 0.039 | 56 | 45 |
| S=P(N1CC1)(N1CC1)N1CC1 [THIOTEPA] | 1.6 | 6.7 | 4 | 2.7 |
| Cc1ccsc1C(=CCCN1CCC[C@@H](C(=O)O)C1)c1sccc1C [TIAGABINE] | 1.1 | 1.6 | 12 | 10 |
| CC(C)(C)NC[C@H](O)COc1nsnc1N1CCOCC1 [TIMOLOL] | 1.5 | 8.5 | 3 | 2.2 |
| CCS(=O)(=O)CCn1c([N+](=O)[O-])cnc1C [TINIDAZOLE] | 0.59 | 0.6 | 16 | 13 |
| Clc1ccc2nsnc2c1NC1=NCCN1 [TIZANIDINE] | 2.4 | 11 | 3.6 | 2.4 |

Reference: ChEMBL document CHEMBL1614632, “Trend analysis of a database of intravenous pharmacokinetic parameters in humans for 670 drug compounds” (Drug Metab Dispos, 2008)
